For 13 compounds, IC50 results are on record in US7417062B2, “Substituted arylamides” (ChemoCentryx, Inc., priority 2004, dated 2008).

The assay deals with T1, CCXCKR2 receptor (Homo sapiens, UniProt P25106).
T1 construct: host or cells: MCF-7 (endogenous) and/or MDA-MB-435S transfected with hRDC1 in pcDNA3.1(+)
T1 sequence (P25106 whole entry): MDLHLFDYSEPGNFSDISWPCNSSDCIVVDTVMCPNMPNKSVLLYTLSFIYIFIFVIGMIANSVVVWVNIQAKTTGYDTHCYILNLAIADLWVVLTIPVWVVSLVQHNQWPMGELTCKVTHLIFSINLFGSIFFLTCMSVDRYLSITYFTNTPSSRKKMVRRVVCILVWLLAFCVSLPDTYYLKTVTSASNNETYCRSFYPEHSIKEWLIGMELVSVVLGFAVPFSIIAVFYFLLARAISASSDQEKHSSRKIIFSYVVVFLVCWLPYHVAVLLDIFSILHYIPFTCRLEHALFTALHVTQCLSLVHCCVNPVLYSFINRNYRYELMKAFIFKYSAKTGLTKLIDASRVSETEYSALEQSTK
Put plainly: Displacement of 125I-labeled SDF-1 from the CCXCKR2 receptor (radioligand binding, determination of IC50 values). The conditions noted are these: MCF-7 and/or MDA-MB-435S cells expressing CCXCKR2; 125I SDF-1; 3 hr at 4° C.; read-out: Activity (ability to displace 125I SDF-1 from CCXCKR2). The procedure: The ability of the compounds to displace the labeled chemokine from the CCXCKR2 receptor sites at multiple concentrations was then determined with the screening process.
Compounds that were deemed effective modulators were able to displace at least 50% of the SDF-1 from the CCXCKR2 receptor at concentrations at or below 10 micromolar (μM) and more preferably at concentrations at or below 2 micromolar. At present, especially preferred compounds can displace at least 50% of the SDF-1 from the CCXCKR2 receptor at concentrations at or below 500 nM. Exemplary compounds that met these criteria are reproduced in Table B below. All compounds were prepared as described in the Examples above, or by related methods substituting readily available starting materials.
Reagents and Cells. ^125I-labeled SDF-1 was purchased from Perkin-Elmer Life Sciences, Inc. (Boston, Mass.). The MCF-7 (adenocarcinoma; mammary gland) cell line was obtained from the American Type Culture Collection (Manassas, Va.) or and was cultured in DMEM (Mediatech, Herndon, Va.) supplemented with 10% fetal bovine serum (FBS) (HyClone Logan, Utah) and bovine insulin (0.01 mg/mL) (Sigma, St. Louis, Mo.) at 37° C. in a humidified incubator at a 5% CO2/air mixture. CCXCKR2 transfected MDA-MB-435S were produced as described below. MDA-MB-435S human breast cancer line, was purchased from ATCC, and cultured in DMEM/10% FBS medium. The complete coding sequence of the gene encoding CCXCKR2 (a.k.a.CXCR7, hRDC1), was isolated from MCF-7 cells using μMACs mRNA isolation kit (Miltenyi Biotec, Auburn, Calif.). DNA contamination was removed by DNase digestion via RNeasy columns (Qiagen, Inc., Valencia, Calif.) and cDNA was generated using GeneAmp RNA PCR Core Kit (Applied Biosystems, Foster City, Calif.). PCR of cDNA samples was performed using Taq PCR Master Mix kit (Qiagen, Inc.) and hRDC1 primers harboring 5′ and 3′ Not I sites (hRDC1F 5′-[…]-3′ (SEQ ID NO:1), hRDC1R 5′-[…]-3′ (SEQ ID NO:2)) Not I digested PCR product was ligated into Not I digested pcDNA3.1(+)(Invitrogen, Carlsbad, Calif.) and screened for orientation and sequence confirmed. Plasmid DNA was then isolated from overnight bacterial cultures by Maxiprep (Qiagen, Inc.). Plasmid DNA (10 μg) was added to MDA-MB-435s cells and cells were electroporated (0.22 kV, 960 uF) via Gene Pulser (Biorad laboratories, Hercules, Calif.). 48 hr post-electroporation, cells were transferred to selection medium (1000 ug/ml G418).
Binding Analysis. Target compounds were tested to determine their ability to bind with CCXCKR2 sites on MCF-7 and/or MDA-MB-435S cells. Efficiency-maximized radioligand binding using filtration protocols as described in Dairaghi D J, et al., HHV8-encoded vMIP-I selectively engages chemokine receptor CCR5. Agonist and antagonist profiles of viral chemokines., J. Biol. Chem. 1999 Jul. 30; 274(31): 21569-74 and Gosling J, et al., Cutting edge: identification of a novel chemokine receptor that binds dendritic cell-and T cell-active chemokines including ELC, SLC, and TECK., J. Immunol. 2000 Mar. 15; 164(6):2851-6 was used.
In these assays, MCF-7 and/or MDA-MB-435S cells were interrogated with the target compounds and the ability of these compounds to displace ^125I radiolabeled SDF-1 was assessed using the protocol described in Dairaghi and Gosling. The target compounds were added to the plate to the indicated concentration and were then incubated with cells followed by the addition of radiolabeled chemokine (^125I SDF-1) for 3 hr at 4° C. in the following binding medium (25 mM HEPES, 140 mM NaCl, 1 mM CaCl2, 5 mM MgCl2 and 0.2% bovine serum albumin, adjusted to pH 7.1). All assays were then incubated for 3 hrs at 4° C. with gentle agitation. Following incubation in all binding assays, reactions were aspirated onto PEI-treated GF/B glass filters (Packard) using a cell harvester (Packard) and washed twice (25 mM HEPES, 500 mM NaCl, 1 mM CaCl2, 5 mM MgCl2, adjusted to pH 7.1). […]
For the compound `COc1cc(C(=O)N(CCC2CCCN2C)Cc2ccc3ccccc3n2)cc(OC)c1OC` (stereo not shown) [Example 11], the IC50 is less than 500 nM.
Then `COc1cc(C(=O)N(CCCN2CCCCC2C)c2cccc(-c3ccccc3)c2)cc(OC)c1OC` (stereo not shown) [Example 17, N-Biphenyl-3-yl-3,4,5-trimethoxy-N-[3-(2-methyl-piperidin-1-yl)-propyl]-benzamide], with less than 500 nM; and `COc1cc(C(=O)N(CCC2CCCN2C)Cc2ccc3ccccc3c2)cc(OC)c1OC` (stereo not shown) [Example 5, 3,4,5-Trimethoxy-N-[2-(1-methyl-pyrrolidin-2-yl)-ethyl]-N-naphthalen-2ylmethyl-benzamide], with less than 500 nM.
As to `COc1cc(C(=O)N(Cc2cc3ccccc3o2)C[C@@H]2CCCN2C2CCC2)cc2c1OC(C)(C)O2` [Example 58, 7-Methoxy-2,2-dimethyl-benzo[1,3]dioxole-5-carboxylic acid benzofuran-2-ylmethyl-((S)-1-cyclobutyl-pyrrolidin-2-ylmethyl)-amide], the IC50 is less than 500 nM.
As for `COc1cc(C(=O)N(CCC2CCCN2C)Cc2nc3ccccc3n2C)cc(OC)c1OC` (stereo not shown) [Example 14, 3,4,5-Trimethoxy-N-(1-methyl-1H-benzoimidazol-2-ylmethyl)-N-[2-(1-methyl-pyrrolidin-2-yl)-ethyl]-benzamide], the IC50 is less than 10000 nM.
As for `COc1cc(C(=O)N(Cc2nc(-c3ccccc3)c(C(F)(F)F)s2)C[C@@H]2C[C@@H]3CCCC[C@@H]3N2)cc2c1OC(C)(C)O2` [Example 77, 7-Methoxy-2,2-dimethyl-benzo[1,3]dioxole-5-carboxylic acid [(2S,3aS,7aS)-1-(octahydro-indol-2-yl)methyl]-(4-phenyl-5-trifluoromethyl-thiazol-2-ylmethyl)-amide], the figure is less than 500 nM; as for `COc1cc(C(=O)N(CCC2CCCN2C)Cc2cc3ccccc3o2)cc(OC)c1OC` (stereo not shown) [Example 7, N-Benzofuran-2-ylmethyl-3,4,5-trimethoxy-N-[2-(1-methyl-pyrrolidin-2-yl)-ethyl]-benzamide], less than 500 nM.
As for `COc1cc(C(=O)N(Cc2ccc3cc(Cl)ccc3n2)C[C@@H]2C[C@@H]3CCCC[C@@H]3N2)cc2c1OC(C)(C)O2` [Example 73, 7-Methoxy-2,2-dimethyl-benzo[1,3]dioxole-5-carboxylic acid (6-chloro-quinolin-2-ylmethyl)-[(2S,3aS,7aS)-1-(octahydro-indol-2-yl)methyl]-amide], the figure is less than 500 nM.
With `COc1cc(C(=O)N(CCC2CCCN2C)Cc2nc3ccccc3s2)cc(OC)c1OC` (stereo not shown) [Example 13, N-Benzothiazol-2-ylmethyl-3,4,5-trimethoxy-N-[2-(1-methyl-pyrrolidin-2-yl)-ethyl]-benzamide], the IC50 was less than 500 nM.
As for `COc1cc(C(=O)N(C[C@@H]2C[C@@H]3CCCC[C@@H]3N2)C(C)c2cc3ccccc3cn2)cc2c1OC(C)(C)O2` (stereo partly drawn) [Example 66, 7-Methoxy-2,2-dimethyl-benzo[1,3]dioxole-5-carboxylic acid (1-isoquinolin-3-yl-ethyl)-[(2S,3aS,7aS)-1-(octahydro-indol-2-yl)methyl]-amide], the figure is less than 500 nM; as for `COc1cc(C(=O)N(CCC2CCCN2C)Cc2ccc3c(c2)OCCO3)cc(OC)c1OC` (stereo not shown) [Example 9, N-(2,3-Dihydro-benzo[1,4]dioxin-6-ylmethyl)-3,4,5-trimethoxy-N-[2-(1-methyl-pyrrolidin-2-yl)-ethyl]-benzamide], less than 500 nM; as for `COc1ccc(C(=O)N(Cc2cc3ccccc3o2)C[C@@H]2CCCN2CC2CCCCC2)cc1OC` [Example 3, N-benzofuran-2-ylmethyl-N—(S)-(1-cyclohexylmethyl-pyrrolidin-2-ylmethyl)-3,4-dimethoxy-benzamide], less than 500 nM.
With `COCCOCCN1CCC[C@H]1CN(Cc1ccc2ccccc2n1)C(=O)c1cc(OC)c2c(c1)OC(C)(C)O2` [Example 47, 7-Methoxy-2,2-dimethyl-benzo[1,3]dioxole-5-carboxylic acid {(S)-1-[2-(2-methoxy-ethoxy)-ethyl]-pyrrolidin-2-ylmethyl}-quinolin-2-ylmethyl-amide], the IC50 was less than 500 nM.
